From US9751919B2, “Antimicrobial compositions comprising a hyaluronic acid binding peptide and a β-lactam antibiotic” (priority 2012, dated 2017)
Where “and” joins values, the source holds several entries; their conditions need not be identical. Identical values can stand only once. Marks after values point to notes of the source that are not given here.

Legend:
[1] = system: S. maltophilia; experiment: Checkerboard assay (FIC index); format: cell-based, Stenotrophomonas maltophilia; conditions: antibiotic combined with PEP35; S. maltophilia 73062
Protocol: (§1) The checkerboard assays were carried out as described by Eliopoulos and Moellering (Chapter 9) in Antibiotic in Laboratory Medicine, Lorian Ed. 1996 as well as Bonapace et al. Diagnostic Microbiology and Infectious Diseases 2002; 44:363-366 and Bonapace et al. Diagnostic Microbiology and Infectious Diseases 2000; 38:43-50. In brief, checkerboard assays were performed in 96 well microtitre trays using an 8-by-8 well configuration. […] 96-well custom designed microtitre plates contained 100 ul/well of cation adjusted Mueller-Hinton broth (eg. for Enterobacteriaceae) with or without lysed horse blood (2-5% V/V) [eg. for S. pneumoniae] and were inoculated to achieve a final concentration of approximately 5×10^5 CFU/ml and incubated in ambient air for 24 hours prior to reading. Colony counts were performed periodically to confirm inocula. Quality control was performed every two weeks using a variety of ATCC QC organisms including; S. pneumoniae 49619, S. aureus 29213, E. faecalis 29212, E. coli 25922 and P. aeruginosa 27853. For all antimicrobials as well as PEP35, CLSI criteria was used.
(§2) The fractional inhibitory concentration index (FIC index) was used to interpret synergy, antagonism or additivity/indifference. FIC index=FIC of drug A+FIC of drug B where:
(§3) The FIC of drug A and drug B is calculated as follows, FIC drug A=MIC of drug A in combination/MIC of drug A alone and FIC of drug B=MIC of drug B in combination/MIC of drug B alone. Synergy is defined as FIC index ≦0.5, additivity/indifference FIC >0.5-4 and antagonism FIC index >4.
(§4) Antimicrobials used included PEP35, cefazolin, ceftriaxone, vancomycin, linezolid, tigecycline and daptomycin versus Gram-positive cocci and PEP35, gentamicin, levofloxacin, piperacillin/tazobactam, meropenem and colistin (Polymyxin E) versus Gram-negative bacilli. These agents were obtained as laboratory grade powders from their respective manufacturers. Stock solutions were prepared and dilutions made as described by the Clinical Laboratory Standards Institute (2005 CLSI).
(§5) Organisms included Gram-positive cocci (2 strains of each): Methicillin-susceptible Staphylococcus aureus (MSSA), community-associated (CA) and healthcare-associated (HA) methicillin-resistant Staphylococcus aureus (MRSA), vancomycin-intermediate Staphylococcus aureus (VISA), vancomycin-resistant Staphylococcus aureus (VRSA), methicillin-resistant Staphylococcus epidermidis (MRSE), Streptococcus pyogenes, Streptococcus agalactiae, Streptococcus pneumoniae, Enterococcus faecalis, Enterococcus faecium and vancomycin-resistant enterococcus (VRE). Gram-negative bacilli tested (2 strains of each) included: E. coli, Pseudomonas aeruginosa, Klebsiella pneumoniae, K. oxytoca, Enterobacter cloacae, P. mirabilis and Stenotrophomonas maltophilia. MIC testing, following two subcultures from frozen stock were determined by the CLSI 2005 approved broth microdilution method.

[2] = system: K. pneumoniae; experiment: Checkerboard assay (FIC index); format: cell-based, Klebsiella pneumoniae; conditions: antibiotic combined with PEP35
Protocol: as §1, §2, §3, §4, §5

[3] = system: E. cloacae; experiment: Checkerboard assay (FIC index); format: cell-based, Enterobacter cloacae; conditions: antibiotic combined with PEP35
Protocol: as §1, §2, §3, §4, §5

[4] = system: E. coli; experiment: Checkerboard assay (FIC index); format: cell-based, Escherichia coli; conditions: antibiotic combined with PEP35
Protocol: Checkerboard assays were carried out as described by Bonapace et al.
as §1, with “Diagnostic” for “The checkerboard assays were carried out as described by Eliopoulos and Moellering (Chapter 9) in Antibiotic in Laboratory Medicine, Lorian Ed. 1996 as well as Bonapace et al. Diagnostic”, “2002; 44:363-366.” for “2002; 44:363-366 and Bonapace et al. Diagnostic Microbiology and Infectious Diseases 2000; 38:43-50.”, “27853. […] All peptides were assessed for synergy with β-lactams and vancomycin.” for “27853.”, “as the peptides,” for “as PEP35,”, “criteria were” for “criteria was”
as §2
as §3, with “was” for “is”, “additivity/indifference defined as a” for “additivity/indifference”, “between 0.5 and 4” for “>0.5-4”, “antagonism defined as an” for “antagonism”
as §1, §3, §4
Organisms included Gram-positive cocci (2 strains of each): Methicillin-susceptible Staphylococcus aureus (MSSA), community-associated (CA) and healthcare-associated (HA) methicillin-resistant Staphylococcus aureus (MRSA), vancomycin-intermediate Staphylococcus aureus (VISA), vancomycin-resistant Staphylococcus aureus (VRSA), methicillin-resistant Staphylococcus epidermidis (MRSE), Streptococcus pyogenes, Streptococcus agalactiae, Streptococcus pneumoniae, Enterococcus faecalis, Enterococcus faecium and vancomycin-resistant enterococcus (VRE). […]

[5] = system: K. oxytoca; experiment: Checkerboard assay (FIC index); format: cell-based, Klebsiella oxytoca; conditions: antibiotic combined with PEP35
Protocol: as §1, §2, §3, §4, §5

[6] = system: P. mirabilis; experiment: Checkerboard assay (FIC index); format: cell-based, Proteus mirabilis; conditions: antibiotic combined with PEP35
Protocol: as §1, §2, §3, §4, §5

[7] = system: P. mirabilis; experiment: MIC, agent alone (broth microdilution); format: cell-based, Proteus mirabilis; conditions: footnote to Table 12; P. mirabilis 80267 and 81569
From the text: as §5

[8] = system: P. aeruginosa; experiment: Checkerboard assay (FIC index); format: cell-based, Pseudomonas aeruginosa; conditions: antibiotic combined with PEP35
Protocol: as §1, §2, §3, §4, §5

With colistin (Polymyxin E) the “Avg ΣFIC (range)” value [1] was 0.88 (0.53-1.25), the “Avg ΣFIC (range)” value ([2]; K. pneumoniae 70508) was 0.67 (0.31-1.06) and the “Avg ΣFIC (range)” value ([2]; K. pneumoniae 77081) was 0.61 (0.18-1.06). For the same substance, the “Avg ΣFIC (range)” value ([3]; E. cloacae 80194) was 0.70 (0.31-1.12), the “Avg ΣFIC (range)” value ([3]; E. cloacae 83128) was 0.77 (0.5-1.06) and the “Avg ΣFIC (range)” value ([4]; E. coli 69716) was 0.71 (0.31-1.06). The “Avg ΣFIC (range)” value ([4]; E. coli 70752) was 0.81 (0.31-1.25), the “Avg ΣFIC (range)” value ([5]; K. oxytoca 75316) was 0.41 (0.24-0.56) and 0.62 (0.18-1.06) and 0.65 (0.18-1.12) and the “Avg ΣFIC (range)” value ([5]; K. oxytoca 76874) was 0.83 (0.31-2.03). The “Avg ΣFIC (range)” value ([6]; P. mirabilis 80267) was >1**, the “Avg ΣFIC (range)” value ([6]; P. mirabilis 81569) was >1** and the MIC [7] was “COL MIC > 4096”. The “Avg ΣFIC (range)” value ([8]; P. aeruginosa 70849) was 0.70 (0.28-1.12) and the “Avg ΣFIC (range)” value ([8]; P. aeruginosa 71841) was 0.89 (0.53-1.25).
